Columns and labels:
plasma peptidase = details: compared with natural tuftsin (I); cited from earlier work
[1] = test system: adjuvant-induced arthritis in the rat; assay: adjuvant-induced arthritis in the rat (secondary lesion, uninjected paw volume by water plethysmometer); assay type: in vivo, consanguineous Lewis rats

gThr-mLys-Pro-Arg-OH [R-T]
stability towards plasma peptidase (plasma peptidase): greater stability towards plasma peptidase | effectiveness relative to natural tuftsin ([1]; administered orally): at least 10 times | reduction in secondary lesion development ([1]; intraperitoneally (i.p.), 0.1 mg/kg, three times per week until the 38th day): appreciable reduction in secondary lesion development, which is statistically significant only during the initial days of treatment | anti-inflammatory activity (reduction in the volume of the uninjected paw) ([1]; oral (intragastric intubation), 0.1 mg/kg, three times per week from day 0 until the 38th day, paw volume from the 14th day): considerable anti-inflammatory activity | reduction in secondary lesion ([1]; subcutaneously (s.c.), 0.1 mg/kg, three times per week until the 38th day): no statistically significant reduction in secondary lesion

From patent EP0448811A1, “New pharmaceutical composition with anti-inflammatory activity” (SCLAVO S.p.A., priority 1989, dated 1991)
